In patent US11730746B2, “17beta-heterocyclyl-digitalis like compounds for the treatment of heart failure” (priority 2018, dated 2023):

What was measured:
[1] = Acute toxicity (LD50) in mouse; conditions: Albino Swiss CD-1, in vivo, single administration
Procedure: 194. Acute toxicity has been determined in the mouse (Albino Swiss CD-1, body weight 30 g). Mice were orally treated, or intravenously injected, with single administration of increasing doses of the test substance to identify the dose causing 50% mortality. Mortality occurred within 30 min after the administration and survival after 24 h. The acute toxicity (LD50) was then assessed.
The acute toxicity of the tested compound CVie 101 has been determined in the mouse (Albino Swiss CD-1, body weight 30 g). CVie 101 has been orally administered or intravenously injected at increasing doses to identify the dose causing 50% mortality. Mortality occurred within 30 min after the administration and survival after 24 h.

Histamine H1 = biological target: T1, Histamine H1 (Homo sapiens, UniProt P35367); assay: Receptor binding 239610
T1 construct: Eurofins (contract assay) 239610
Procedure: (§1) Radioligand binding to a panel of receptors was carried out by Eurofins on crude membrane preparations according to published procedures and by using appropriate reference standard (Eurofins, CVie 101 compound code PT #1207859, study #AB76416, quote #68407-1, for Cvie Therapeutics Limited, Taiwan (R.OC.) on Mar. 5, 2017). CVie 101 was tested at the concentration of 10 μM. No significant interaction was documented, except for Sodium Channel, site 2 from rat (cat #279510), where a significant response (≥50%) was noted (Table 7).

HMG-CoA Reductase = biological target: T2, HMG-CoA Reductase (Homo sapiens, UniProt P04035); assay: Eurofins panel 124010; type: biochemical
T2 construct: Eurofins 124010

Peptidase, Renin = biological target: T3, Peptidase, Renin (Homo sapiens, UniProt P00797); assay: Eurofins panel 164610; type: biochemical
T3 construct: Eurofins 164610

Sigma σ1 = biological target: T4, Sigma σ1 (Homo sapiens, UniProt Q99720); assay: Receptor binding 278110
T4 construct: Eurofins (contract assay) 278110
Procedure: as §1

[2] = tested on: Serotonin (5-Hydroxytryptamine) 5-HT1, non selective; assay: Receptor binding 271010; design: species or system rat; conditions: 10 μM
Procedure: as §1

Glucocorticoid = biological target: T5, Glucocorticoid (Homo sapiens, UniProt P04150); assay: Receptor binding 232030
T5 construct: Eurofins (contract assay) 232030
Procedure: as §1

Imidazoline I2, Central = assay: Receptor binding 241000; design: species or system rat; conditions: 10 μM
Procedure: as §1

[3] = rats, study i.v. 1 mg/kg and os 10 mg/kg, mean

T1 sequence (P35367 whole entry): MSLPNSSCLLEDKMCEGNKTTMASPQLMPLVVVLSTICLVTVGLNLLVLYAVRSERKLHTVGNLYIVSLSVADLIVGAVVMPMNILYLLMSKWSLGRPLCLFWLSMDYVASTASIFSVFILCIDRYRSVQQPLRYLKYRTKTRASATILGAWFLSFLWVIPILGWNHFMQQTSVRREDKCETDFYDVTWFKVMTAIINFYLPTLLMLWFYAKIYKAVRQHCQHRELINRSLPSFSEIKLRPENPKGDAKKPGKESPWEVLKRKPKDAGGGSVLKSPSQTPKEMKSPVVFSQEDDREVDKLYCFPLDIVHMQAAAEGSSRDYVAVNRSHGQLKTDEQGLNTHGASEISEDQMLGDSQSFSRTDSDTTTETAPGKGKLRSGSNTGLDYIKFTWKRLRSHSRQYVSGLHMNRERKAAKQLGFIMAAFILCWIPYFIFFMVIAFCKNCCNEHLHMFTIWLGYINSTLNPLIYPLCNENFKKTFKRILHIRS
T4 sequence (Q99720 whole entry): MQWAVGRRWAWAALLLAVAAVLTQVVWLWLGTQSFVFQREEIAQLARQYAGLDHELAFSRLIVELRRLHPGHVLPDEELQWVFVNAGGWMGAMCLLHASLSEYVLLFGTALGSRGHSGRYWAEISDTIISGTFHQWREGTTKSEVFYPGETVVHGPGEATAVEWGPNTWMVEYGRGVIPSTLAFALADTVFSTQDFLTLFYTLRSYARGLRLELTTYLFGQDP
T3 sequence (P00797 67-406): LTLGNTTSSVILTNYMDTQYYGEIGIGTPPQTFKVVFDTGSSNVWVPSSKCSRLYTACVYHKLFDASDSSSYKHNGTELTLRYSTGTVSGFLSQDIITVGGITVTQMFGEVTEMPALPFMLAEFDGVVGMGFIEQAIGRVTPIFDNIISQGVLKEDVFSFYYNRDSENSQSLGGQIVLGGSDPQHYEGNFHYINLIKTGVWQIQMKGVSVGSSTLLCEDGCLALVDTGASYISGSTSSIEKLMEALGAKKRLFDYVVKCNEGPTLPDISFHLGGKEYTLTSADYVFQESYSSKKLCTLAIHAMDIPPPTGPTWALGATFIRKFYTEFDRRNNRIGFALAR
T5 sequence (P04150 whole entry): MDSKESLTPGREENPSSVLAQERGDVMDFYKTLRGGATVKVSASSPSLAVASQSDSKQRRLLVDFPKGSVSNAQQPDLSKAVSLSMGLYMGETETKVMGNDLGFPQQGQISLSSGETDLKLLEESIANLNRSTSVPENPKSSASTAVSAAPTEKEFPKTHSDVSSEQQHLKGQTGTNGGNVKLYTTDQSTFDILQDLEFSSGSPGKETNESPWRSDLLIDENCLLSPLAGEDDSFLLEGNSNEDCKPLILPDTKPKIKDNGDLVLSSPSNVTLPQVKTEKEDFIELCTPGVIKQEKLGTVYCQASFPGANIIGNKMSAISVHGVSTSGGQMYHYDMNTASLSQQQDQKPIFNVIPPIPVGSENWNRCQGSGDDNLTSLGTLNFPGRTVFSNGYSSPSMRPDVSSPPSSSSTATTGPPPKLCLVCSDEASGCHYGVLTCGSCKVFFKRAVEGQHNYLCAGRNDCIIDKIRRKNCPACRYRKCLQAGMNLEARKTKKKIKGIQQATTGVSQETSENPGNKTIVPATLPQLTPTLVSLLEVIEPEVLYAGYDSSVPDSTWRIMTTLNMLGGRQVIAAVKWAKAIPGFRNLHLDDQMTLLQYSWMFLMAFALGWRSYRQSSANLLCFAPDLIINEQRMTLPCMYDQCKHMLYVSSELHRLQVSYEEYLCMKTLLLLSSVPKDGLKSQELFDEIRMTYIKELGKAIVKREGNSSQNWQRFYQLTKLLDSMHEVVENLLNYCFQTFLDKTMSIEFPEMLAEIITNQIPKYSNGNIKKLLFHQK
T2 sequence (P04035 426-888 limits assumed): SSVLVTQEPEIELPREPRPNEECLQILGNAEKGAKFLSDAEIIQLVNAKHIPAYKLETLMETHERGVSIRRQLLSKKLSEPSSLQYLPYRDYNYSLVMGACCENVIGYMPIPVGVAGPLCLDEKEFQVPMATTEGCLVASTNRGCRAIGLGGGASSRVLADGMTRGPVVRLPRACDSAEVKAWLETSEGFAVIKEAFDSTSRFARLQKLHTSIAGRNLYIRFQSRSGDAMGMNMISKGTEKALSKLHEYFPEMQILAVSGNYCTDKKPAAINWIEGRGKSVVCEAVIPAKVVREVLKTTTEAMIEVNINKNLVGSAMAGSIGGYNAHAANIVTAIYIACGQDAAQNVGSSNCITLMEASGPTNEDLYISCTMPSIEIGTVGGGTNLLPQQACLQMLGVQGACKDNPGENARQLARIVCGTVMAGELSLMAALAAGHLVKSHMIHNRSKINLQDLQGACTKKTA

C[C@]12CC[C@H](O)C[C@H]1CCC1C2CC[C@]2(C)[C@@H](c3c[nH]cn3)CC[C@]12O (stereo partly drawn) [CVie 101, 3β-hydroxy-5β-10β-methyl-13β-methyl-14β-hydroxy-17β-(imidazol-4-yl)androstane]
LD50 at 24 h ([1]; iv): 20 mg/kg
LD50 at 24 h ([1]; oral, os): 350 mg/kg
inhibition at 10 µM (Histamine H1): 13%
inhibition at 10 µM (HMG-CoA Reductase): 7%
AUC(0-inf) (Bioavailability in rats; rat, in vivo, 10 mg/kg): 2490 ng·h/mL
AUC(0-t) (Bioavailability in rats; rat, in vivo, 10 mg/kg): 2430 ng·h/mL
Cmax (Bioavailability in rats; rat, in vivo, 10 mg/kg): 1020 ng/mL
MRT last (Bioavailability in rats; rat, in vivo, 10 mg/kg): 2.03 h
Tmax (Bioavailability in rats; rat, in vivo, 10 mg/kg): 0.5 h
half-life (Bioavailability in rats; rat, in vivo, 10 mg/kg): 2.21 h
bioavailability (Bioavailability in rats; rat, in vivo, po, 10 mg/kg): 66.3%
Cl_F_pred (Bioavailability in rats; [3]): 81.3 mL/min/kg
Vz_F_pred (Bioavailability in rats; [3]): 14.29 L/kg
inhibition at 10 µM (Peptidase, Renin): 3%
inhibition at 10 µM (Sigma σ1): 23%
% inhib [2]: 7%
inhibition at 10 µM (Glucocorticoid): 10%
% inhib (Imidazoline I2, Central): 25%
